# Assay results taken from patent US8697898B2, “Medical application of lipid derivatives of dopamine and the methods of their production” (Instytut Medycyny Doswiadczalnej i Klinicznej im. M. …, priority 2011, dated 2014).
# Assays:
# [1] = tested on: rat model of Parkinson's disease
# Protocol: Symptoms of the Parkinson's disease, particularly muscle rigidity during flexion and extension movements in the ankle joint, were induced with reserpine (2.5 mg/kg, i.p.) and a-methyl-tyrosine (α-MT, 250 mg/kg, i.p.) administered at a 16-h interval. Afterwards, 3′-O-methyl-N-oleoyl-dopamine (O-Me-OLDA) was administered at a dose of 10 mg/kg and the muscular tone was measured using electromyographic (EMG) techniques. The control groups consisted of a) only vehiculum-treated animals in which no symptoms of Parkinson's disease were induced (control), b) animals who received only 3′-O-methyl-N-oleoyl-dopamine (O-Me-OLDA) and c) animals in which symptoms of Parkinson's disease were induced (reserpine+α-MT), but no other treatment was introduced.
# This method is a pharmacological tool for modeling the typical, dopamine-deficiency-related brain symptoms of Parkinson's disease in rats.
# awake Wistar rats = experiment: Respiration in normoxia and hypoxia in the awake rat (plethysmographic chamber); format: in vivo; conditions: for minute lung ventilation after administration of haloperidol and N-oleoyl-dopamine: haloperidol 0.9 mg/kg i.p. prior to N-oleoyl-dopamine 40 mg/kg i.p.
# Protocol: The study was performed in awake Wistar rats in a computerized plethysmographic chamber for small rodents. Respiratory frequency, tidal volume and pulmonary ventilation were measured. The experimental protocol included recordings in normoxia (breathing with atmospheric air), two levels of hypoxic stimulus (8% and 12% O2 in N2), intraperitoneal (i.p.) administration of N-oleoyl-dopamine (in a dose of 40 mg/kg) and repeated recordings for both normoxic and hypoxic states. Additionally, further experiments with the dopamine receptor antagonist haloperidol (in a dose of 0.9 mg/kg, i.p.) were performed. In those experiments, haloperidol was administered prior to N-oleoyl-dopamine and the recordings according the above-mentioned protocol were repeated.
# The study was performed in awake Wistar rats in a computerized plethysmographic chamber for small rodents. Respiratory frequency, tidal volume and pulmonary ventilation were measured. The experimental protocol included recordings for normoxia (breathing with atmospheric air), for two levels of hypoxic stimulus (8% and 12% O2 in N2), intraperitoneal (i.p.) administration of 3′-O-methyl-N-oleoyl-dopamine (in a dose of 40 mg/kg), and then repeated recordings for both normoxic and hypoxic states.
# [2] = target: T1, catechol-O-methyltransferase (Homo sapiens, UniProt P21964); experiment: O-methylation by catechol-O-methyltransferase in vitro; format: in vitro ADME; conditions: PBS pH=8, 10 mM magnesium ions, S-adenosyl-L-methionine, one hour at 37° C.
# T1 sequence (P21964 1-271): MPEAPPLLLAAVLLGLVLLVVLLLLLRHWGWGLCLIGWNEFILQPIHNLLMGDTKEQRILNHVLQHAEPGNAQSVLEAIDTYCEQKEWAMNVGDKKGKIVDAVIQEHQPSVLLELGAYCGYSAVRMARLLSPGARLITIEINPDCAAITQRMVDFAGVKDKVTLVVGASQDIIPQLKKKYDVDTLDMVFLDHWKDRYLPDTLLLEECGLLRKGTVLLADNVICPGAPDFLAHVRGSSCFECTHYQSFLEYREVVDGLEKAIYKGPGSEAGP
# Protocol: N-oleoyl-dopamine underwent the reaction of methylation with the catechol-O-methyltransferase in PBS buffer pH=8 with 10 mM magnesium ions as the co-factor and S-adenosyl-L-methionine as the donor of methyl groups. The reaction was conducted for one hour at 37° C. After the termination of the reaction, the reaction mixture was extracted with chloroform to obtain an organic and an aqueous phase. Both phases were analyzed using UV/VIS spectrophotometry and high performance liquid chromatography with mass detection (HPLC/MS). It was shown that the organic phase contained both N-oleoyl-dopamine and 3′-O-methyl-N-oleoyl-dopamine (the substrate and the product of the reaction, respectively), and the aqueous phase S-adenosyl-L-methionine and its demethylated derivative, S-adenosyl-L-homocystein (the substrate and the product of the reaction, respectively). The obtained results were additionally confirmed with the mass spectrometry (MS).
# rat = conditions: cited from earlier work
# [3] = tested on: membrane system of the rat brain; experiment: Binding to the rat brain membrane system after intraperitoneal administration (TLC of brain lipids); format: in vivo, Wistar rats; conditions: 20 mg/kg intraperitoneal
# Protocol: N-oleoyl-dopamine was administered to Wistar rats at a dose of 20 mg/kg. After 1, 2, 3 or 24 hours the rat was sacrificed and the brain was resected. From the tissue, the whole lipid fraction, containing all lipids of the brain and the membrane fraction of the rat brain were obtained. Total lipids were obtained by homogenization of the brain in a mixture of chloroform and methanol 2:1 followed by an extraction of the water-soluble fractions and evaporation of the solvent. The membrane phase was obtained according to Xu et al. (Xu, 1998) and extracted with chloroform to obtain membrane lipids. All obtained samples were analyzed by the thin layer chromatography TLC on silica gel plates 60 using a mixture of chloroform and methanol 95:5 as the mobile phase and N-oleoyl-dopamine as the standard. The Retention Factor (Rf) for the N-oleoyl-dopamine standard was equal to 0.24-0.26. At the same level (the same Rf=0.24-0.29) there were bands corresponding to N-oleoyl-dopamine in the biological samples, that is after systemic N-oleoyl-dopamine injection, but not in the control samples obtained with no N-oleoyl-dopamine injection.
# [4] = after injection into the carotid artery; cited from earlier work
# [5] = tested on: anesthetized, paralyzed and artificially ventilated Wistar rats; experiment: Respiratory response to hypoxia in the anesthetized rat (integrated phrenic nerve activity); format: in vivo
# Protocol: The study was performed in anesthetized, paralyzed and artificially ventilated Wistar rats. During the experiments, the integrated activity of the phrenic nerve was recorded. This activity reflects the frequency and tidal volume; their product represents the index of minute lung ventilation. The experimental protocol consisted of control recordings for two levels of the hypoxic stimulus: 14% and 11% O2 in N2. Afterwards, N-oleoyl-dopamine in a dose of 20 mg/kg was given and the recordings were repeated. Additionally, experiments with two dopamine receptor antagonists were performed: first, with the penetrating through the blood-brain barrier D2 dopamine receptor antagonist haloperidol and second, with the non-penetrating through the blood-brain-barrier domperidone. In these studies, after the control recordings, haloperidol (in a dose of 3 mg/kg) or domperidone (in a dose of 0.3 mg/kg) were administered and the recordings repeated. Then, N-oleoyl-dopamine was given and the recordings were repeated.
# [6] = N-oleoyl-dopamine given after domperidone 0.3 mg/kg
# [7] = N-oleoyl-dopamine given after haloperidol 3 mg/kg
Structure (SMILES),"level of muscle tone elevated by reserpine (force needed for flexion and extension of the ankle joint) ([1]; 10 mg/kg, FIG. 1)","muscle rigidity in rats showing symptoms of Parkinson's disease ([1]; reserpine 2.5 mg/kg i.p. + α-MT 250 mg/kg i.p., compound 10 mg/kg)","peak respiratory response after administration (awake Wistar rats; 8% hypoxia, 40 mg/kg i.p.) [ml/min/kg body weight]","resting ventilation during breathing with atmospheric oxygen after administration (awake Wistar rats; normoxia, 40 mg/kg i.p.) [ml/min/kg body weight]",O-methylation by catechol-O-methyltransferase [2],locomotive activity (rat),penetration into the brain tissue [3],ability to penetrate into the brain [4],minute lung ventilation after administration of haloperidol and N-oleoyl-dopamine (awake Wistar rats; 8% hypoxia) [ml/min/kg body weight],"peak respiratory response after administration (awake Wistar rats; 12% hypoxia, 40 mg/kg i.p.) [ml/min/kg body weight]",minute lung ventilation after administration of haloperidol and N-oleoyl-dopamine (awake Wistar rats; 12% hypoxia) [ml/min/kg body weight],peak respiratory response after N-oleoyl-dopamine under blockade of the dopaminergic system (awake Wistar rats; haloperidol 0.9 mg/kg i.p. prior to N-oleoyl-dopamine),"respiration in the inhibitory phase [5, 6]","response to hypoxia in the stimulatory phase [5, 6]","respiratory response in the first stimulatory phase [5, 7]","respiratory response in the second inhibitory phase [5, 7]",respiration in the second inhibitory phase of the hypoxic response ([5]; drug alone)
CCCCCCCC/C=C\CCCCCCCC(=O)NCCc1ccc(O)c(OC)c1 [3′-O-methyl-N-oleoyl-dopamine],decreases nearly down to the control level,abolished muscle rigidity,1939±255,779.7±148.7,–,–,–,–,–,–,–,–,–,–,–,–,–
CCCCCCCC/C=C\CCCCCCCC(=O)NCCc1ccc(O)c(O)c1 [N-oleoyl-dopamine],–,–,1338.3±49.5,–,undergoes the O-methylation,increases the locomotive activity,penetrates,ability to penetrate into the brain,1947.3±66.5,856.6±73.7,1484.0±92.3,only a slight reduction,still diminished the respiration,did not change the response to hypoxia,did not restore the respiratory response,still diminished it,–
"O=C(CCCN1CCC(O)(c2ccc(Cl)cc2)CC1)c1ccc(F)cc1 [haloperidol, reference compound]",–,–,–,–,–,–,–,–,–,–,–,–,–,–,–,–,diminished the respiration
